Assay results published in patent publication US20220304307A1, “SYNERGISTIC MIXTURES FOR ARTHROPOD TOXICITY AND REPELLENCY” (University of Florida Research Foundation, Incorporated, priority 2019, published 2022).
“Also recorded” adds a separate entry of the source. Counter-ions that a name gives are not always drawn. Like-named read-outs stand apart in the source and are kept apart here.

Assays:
[1] = system: Orlando insecticide-susceptible strain of Ae. aegypti (female mosquitoes); assay: Glass tube spatial repellency assay; format: in vivo, Aedes aegypti; conditions: for repellency EC50 (+TFA): applied as mixture with TFA (50 μg/cm^2); for repellency EC50 (+TFA) / repellency EC50 / effect of TFA on repellency, applied as mixture: 1 hr; for repellency EC50 / spatial repellency in screening / repellency at highest concentration tested (words): compound alone; for synergist ratio SR (EC50 compound alone/EC50 compound+TFA): TFA 50 μg/cm^2 as mixture; for 15 min repellency ratio / 30 min repellency ratio / 1 hr repellency ratio: horizontal tube, 0.5=0% repellency, 0=100% repellency; for effect of TFA on repellency, applied as mixture: TFA 50 μg/cm^2 + EC20 of test compound (permethrin 30 μg/cm^2); for effect of TFA on repellency, applied side-by-side: TFA 50 μg/cm^2 side-by-side, DEET 18 μg/cm^2; for synergism of repellency with citronella: citronella at its EC20 (20 μg/cm^2); for EC50 (95% CL), repellency of TFA esters: 1 hr exposures, Ae. aegypti females; for spatial repellency in screening: 100 μg/cm^2, 1 hr exposure; for repellency at highest concentration tested (words): 1-2 mg/cm^2
Method: (§1) The following assay was conducted according to the procedures of Jiang et al., 2019 (Jiang S., Yang L, and Bloomquist J (2019) High-throughput screening method for evaluating spatial repellency and vapor toxicity to mosquitoes. Med. Vet. Entomol.). For assessing behavioral repellency (FIG. 1), sixteen female Aedes aegypti mosquitoes were transferred to a glass tube (12.5 cm long, 2.5 cm outer diameter) with the ends covered with netting. Metofluthrin, bifenthrin, permethrin, pyrethrum, transfluthrin, deltamethrin, esfenvalerate, metofluthrin acid, bifenthrin acid, phenothrin acid, transchryanthemic acid, transfluthrin acid, deltamethrin acid, and fenvalerate acid were each dissolved in 1 mL of acetone and serial dilutions ranging from 30-0.01 μg/ml were made. Circular filter papers (5 cm^2) were saturated with 50 μL of each concentration and allowed 10 min for solvent evaporation. The filter papers were then placed in clear conical polypropylene caps and fixed to the end of the glass tubes. The netting prevented mosquito contact with the filter paper. Tubes were then aligned with a mark denoting the midline and the proportion of mosquitoes on the chemically treated side was scored at 15, 30, and 60 min. At the end of the test, the tube was placed in a cage and the ability of the mosquitoes to fly out of the tube was assessed for 30 min. […] This post-test evaluated whether any non-responding mosquitoes (not repelled) was due to intoxication or disorientation from the test chemical. For vapor toxicity, the assay was identical, except that mosquitoes were kept in the tube for 24 hr without the post-test at 1 hr, and the mortality was recorded at 24 hr.

female Ae. aegypti = assay: Human arm bite protection assay; format: in vivo, Aedes aegypti; conditions: for MED values Female 10: as E30, volunteer one; for MED values Female 9: as E30, volunteer two; for MED Mean: mean of three human volunteers; for MED values Male 4: minimum amount preventing 99% of bites, treated cloth patch, 1 min in cage, mixtures with TFA 0.047 or TCA 0.094 mg/cm^2
Method: A human bite protection assay was performed according to see if the repellency observed in glass tubes extended to bite protection. The assay was run in accordance with that of Tsikolia et al. (Tsikolia M, Bernier UR, Coy M, Chalaire K, Becnel J, Agramonte N, Tabanca N, Wedge D, Clark G, Linthicum K, Swale D, and J. R. Bloomquist J (2013) Insecticidal and fungicidal properties of novel trifluoromethylphenyl amides. Pestic. Biochem. Physiol. 107, 138-147). Treated cloth patches were worn by human volunteers and the number of blood fed mosquitoes was determined after 1 min spent in a cage with 500 (±10%) female Ae. aegypti. Minimum Effective Dosage (MED in mg/cm^2) is the minimum amount required to prevent 99% of bites in three human volunteers (UF IRB #201602334). Synergist ratio (SR)=MED chemical alone/MED chemical+TFA (0.047 mg/cm^2) or TCA (0.094 mg/cm^2).

[2] = system: insecticide-susceptible Aedes aegypti (Orlando strain) females; assay: Glass tube vapor toxicity assay (24 hr mortality); conditions: for 24 hr mort (%): horizontal tube; for mortality at 100 µg/cm2: Aedes aegypti
Method: as §1
Synergism ratio (SR)=LC50 pyrethroid/LC50 pyrethroid+EO.

Compound: CCCCCCCCCC(C)=O [2-undecanone]
- repellency EC50 (+TFA) [1]: 5.1 μg/cm^2
- repellency EC50 [1]: 59 μg/cm^2
- synergist ratio SR (EC50 compound alone/EC50 compound+TFA) ([1]; repellency): 11.6
- MED values Female 10 (female Ae. aegypti): 0.375 mg/cm^2
- MED values Female 9 (female Ae. aegypti): 0.187 mg/cm^2
- MED Mean (female Ae. aegypti): 0.219 mg/cm^2
- MED values Male 4 (female Ae. aegypti): 0.094 mg/cm^2

Compound: O=Cc1cccc(Cl)c1 [3-chlorobenzaldehyde]
- 15 min repellency ratio ([1]; 10 μg/cm^2): 0.28
- 30 min repellency ratio ([1]; 10 μg/cm^2): 0.34
- 1 hr repellency ratio ([1]; 10 μg/cm^2): 0.41
- 24 hr mort (%) ([2]; 10 μg/cm^2): 31.3%
- 24 hr mort (%) ([2]; 100 μg/cm^2): 100.0%
- mortality at 100 µg/cm2 ([2]; 0.25 h, read-out: 15 min % mortality): 50%
- mortality at 100 µg/cm2 ([2]; 0.5 h, read-out: 30 min % mortality): 75%
- mortality at 100 µg/cm2 ([2]; 1 h, read-out: 1 hr % mortality): 100%

Compound: O=Cc1cccc(C(=O)O)c1 [3-formyl benzoic acid]
- 15 min repellency ratio ([1]; 10 μg/cm^2): 0.50
- 30 min repellency ratio ([1]; 10 μg/cm^2): 0.47
- 1 hr repellency ratio ([1]; 10 μg/cm^2): 0.47
- 15 min repellency ratio ([1]; 100 μg/cm^2): 0.53
- 30 min repellency ratio ([1]; 100 μg/cm^2): 0.56
- 1 hr repellency ratio ([1]; 100 μg/cm^2): 0.56
- 24 hr mort (%) ([2]; 10 μg/cm^2): 6.3%
- 24 hr mort (%) ([2]; 100 μg/cm^2): 9.4%

Compound: O=Cc1cccc(Oc2ccccc2)c1 [3-phenoxybenzaldehyde]
- MED values Female 10 (female Ae. aegypti): 0.750 mg/cm^2
- MED values Female 9 (female Ae. aegypti): >0.75 mg/cm^2
- MED Mean (female Ae. aegypti): >0.75 mg/cm^2
- MED values Male 4 (female Ae. aegypti): >0.75 mg/cm^2

Compound: CCN(CC)C(=O)c1cccc(C)c1 [DEET, N,N-diethyl-m-toluamide, reference compound]
- effect of TFA on repellency, applied as mixture [1]: no statistically significant effect
- effect of TFA on repellency, applied side-by-side [1]: synergistic effect was observed
- repellency EC50 +TFA(S) ([1]; TFA (50 μg/cm^2) applied side-by-side on halves of the filter): 8.1 μg/cm^2
- repellency EC50 (+TFA) [1]: 26 μg/cm^2
- synergism of repellency with citronella [1]: did not synergize
- repellency EC50 [1]: 39 μg/cm^2
- synergist ratio SR (EC50 compound alone/EC50 compound+TFA) ([1]; repellency): 1.5
- fold decrease of EC50 by TFA side-by-side ([1]; repellency, TFA 50 μg/cm^2 side-by-side treatment): ~5 fold
- MED values Female 10 (female Ae. aegypti): 0.011 mg/cm^2
- MED values Female 9 (female Ae. aegypti): 0.011 mg/cm^2
- MED Mean (female Ae. aegypti): 0.011 mg/cm^2
- MED values Male 4 (female Ae. aegypti): 0.011 mg/cm^2

Compound: CCCCCOC(=O)[C@@H]1[C@@H](C=C(Cl)Cl)C1(C)C [GMR 120, nPentyl (1R,3S)-3-(2,2-dichlorovinyl)-2,2-dimethylcyclopropane-1-carboxylate]
- EC50 (95% CL), repellency of TFA esters [1]: 10 (7-15) μg/cm^2

Compound: CC1(C)[C@H](C=C(Cl)Cl)[C@H]1C(=O)OC1CCCC1 [GMR 124, Cyclopentyl (1R,3S)-3-(2,2-dichlorovinyl)-2,2-dimethylcyclopropane-1-carboxylate]
- EC50 (95% CL), repellency of TFA esters [1]: 11 (8-15) μg/cm^2

Compound: CC1(C)[C@H](C=C(Cl)Cl)[C@H]1C(=O)OC1CCC1 [GMR 125, Cyclobutyl (1R,3S)-3-(2,2-dichlorovinyl)-2,2-dimethylcyclopropane-1-carboxylate]
- EC50 (95% CL), repellency of TFA esters [1]: 17 (11-27) μg/cm^2

Compound: CC1(C)[C@H](C=C(Cl)Cl)[C@H]1C(=O)OC1CC1 [GMR 126, Cyclopropyl (1R,3S)-3-(2,2-dichlorovinyl)-2,2-dimethylcyclopropane-1-carboxylate]
- EC50 (95% CL), repellency of TFA esters [1]: 8.5 (5-13) μg/cm^2
- repellency EC50 (+TFA) [1]: 0.35 μg/cm^2
- repellency EC50 [1]: 8.5 μg/cm^2
- synergist ratio SR (EC50 compound alone/EC50 compound+TFA) ([1]; repellency): 24

Compound: CCCCN(CCC(=O)OCC)C(C)=O [IR3535, ethyl butylacetylaminopropionate]
- effect of TFA on repellency, applied as mixture [1]: no statistically significant effect
- MED values Female 10 (female Ae. aegypti): 0.047 mg/cm^2
- MED values Female 9 (female Ae. aegypti): 0.047 mg/cm^2
- MED Mean (female Ae. aegypti): 0.063 mg/cm^2
- MED values Male 4 (female Ae. aegypti): 0.094 mg/cm^2

Compound: OCc1c(F)c(F)cc(F)c1F [TF-OH, transfluthrin alcohol]
- spatial repellency in screening [1]: significant repellency
- repellency EC50 (+TFA) [1]: 41 μg/cm^2
- repellency EC50 [1]: 80 μg/cm^2
- synergist ratio SR (EC50 compound alone/EC50 compound+TFA) ([1]; repellency): about 2

Compound: CC1(C)C(C=C(Cl)Cl)C1C(=O)O (stereo not shown) [TFA, transfluthrin acid]
- repellency of TFA by itself ([1]; TFA alone, 50 μg/cm^2 and higher): no repellent activity by itself; also recorded: no effect; also recorded: inactive by itself
- synergism of repellency with citronella [1]: strong positive response; also recorded: Synergistic interactions were discovered
- MED values Female 10 (female Ae. aegypti): 0.094 mg/cm^2
- MED values Female 9 (female Ae. aegypti): 0.187 mg/cm^2
- MED Mean (female Ae. aegypti): 0.156 mg/cm^2
- MED values Male 4 (female Ae. aegypti): 0.187 mg/cm^2

Compound: CCc1ccc(NC(=O)CSc2nnc(-c3cccnc3)n2CC)cc1 [VUAA-1, 2-(4-Ethyl-5-(pyridin-3-yl)-4H-1,2,4-triazol-3-ylthio)-N-(4-ethylphenyl)acetamide, reference compound]
- effect of TFA on repellency, applied side-by-side [1]: synergism disappeared
- repellency EC50 (+TFA) [1]: 30 μg/cm^2
- repellency EC50 +citronella ([1]; co-applied citronella at its EC20 (20 μg/cm^2)): 34 μg/cm^2
- repellency at highest concentration tested (words) [1]: inactive; also recorded: repellency was not observed
- repellency EC50 [1]: >2000 μg/cm^2
- synergist ratio SR (EC50 compound alone/EC50 compound+TFA) ([1]; repellency): >67

Compound: O=Cc1ccccc1 [benzaldehyde, reference compound]
- repellency EC50 (+TFA) [1]: 15 μg/cm^2
- repellency EC50 [1]: 118 μg/cm^2
- synergist ratio SR (EC50 compound alone/EC50 compound+TFA) ([1]; repellency): 8

Compound: Cc1c(COC(=O)C2C(/C=C(/Cl)C(F)(F)F)C2(C)C)cccc1-c1ccccc1 (stereo not shown) [bifenthrin, Bifenthrin, reference compound]
- spatial repellency in screening [1]: some repellency at high exposure

Compound: CC1(C)[C@H](C(=O)O[C@H](C#N)c2cccc(Oc3ccccc3)c2)[C@@H]1C=C(Br)Br [deltamethrin, Deltamethrin, reference compound]
- spatial repellency in screening [1]: inactive as vapor phase repellents

Compound: Cc1cccc(C(N)=O)c1 [m-toluamide]
- 15 min repellency ratio ([1]; 10 μg/cm^2): 0.50
- 30 min repellency ratio ([1]; 10 μg/cm^2): 0.50
- 1 hr repellency ratio ([1]; 10 μg/cm^2): 0.38
- 15 min repellency ratio ([1]; 100 μg/cm^2): 0.19
- 30 min repellency ratio ([1]; 100 μg/cm^2): 0.31
- 1 hr repellency ratio ([1]; 100 μg/cm^2): 0.06

Compound: CC/C=C\C[C@H]1C(=O)CC[C@@H]1CC(=O)OC [methyl jasmonate, Methyl (1R,2R)-3-Oxo-2-(2Z)-2-pentenyl-cyclopentaneacetate]
- repellency EC50 (+TFA) [1]: 6 μg/cm^2
- repellency EC50 [1]: 39 μg/cm^2
- synergist ratio SR (EC50 compound alone/EC50 compound+TFA) ([1]; repellency): 6.5
- MED values Female 10 (female Ae. aegypti): 0.75 mg/cm^2
- MED values Female 9 (female Ae. aegypti): 0.75 mg/cm^2
- MED Mean (female Ae. aegypti): >1 mg/cm^2
- MED values Male 4 (female Ae. aegypti): >1.5 mg/cm^2

Compound: COCc1c(F)c(F)c(CO)c(F)c1F [metofluthrin alcohol]
- synergism of repellency with GMR 134 ([1]; alcohol 100 μg/cm^2 mixed with GMR 134 at 2 μg/cm^2): significantly synergized

Compound: CC1(C)C(C=C(Cl)Cl)C1C(=O)OCc1cccc(Oc2ccccc2)c1 (stereo not drawn) [permethrin, 3-phenoxybenzyl 3-(β,β-dichlorovinyl)-2,2-dimethylcyclopropanecarboxylate, reference compound]
- spatial repellency in screening [1]: inactive as vapor phase repellents
- effect of TFA on repellency, applied as mixture [1]: some spatial repellency
- repellency EC50 (+TFA) [1]: 9.5 μg/cm^2
- repellency at highest concentration tested (words) [1]: repellency was not observed
- repellency at highest concentration tested (words) ([1]; listed as Permethrin): inactive
- repellency EC50 [1]: >1000 μg/cm^2
- synergist ratio SR (EC50 compound alone/EC50 compound+TFA) ([1]; repellency): >105
- MED values Female 10 (female Ae. aegypti): 0.187 mg/cm^2
- MED values Female 9 (female Ae. aegypti): 0.187 mg/cm^2
- MED Mean (female Ae. aegypti): 0.187 mg/cm^2
- MED values Male 4 (female Ae. aegypti): 0.187 mg/cm^2

Compound: benzyloxybenzaldehyde
- 15 min repellency ratio ([1]; 10 μg/cm^2): 0.69
- 30 min repellency ratio ([1]; 10 μg/cm^2): 0.69
- 1 hr repellency ratio ([1]; 10 μg/cm^2): 0.63
- 15 min repellency ratio ([1]; 100 μg/cm^2): 0.69
- 30 min repellency ratio ([1]; 100 μg/cm^2): 0.81
- 1 hr repellency ratio ([1]; 100 μg/cm^2): 0.44
